US20250352595A1, “PHARMACEUTICAL, FOOD, OR FEED COMPOSITION FOR PREVENTING OR TREATING MUSCLE LOSS CONTAINING RHODODENDRON MUCRONULATUM EXTRACT” (DR. OREGONIN INC., priority 2022, published 2025)

Tested on: 3T3-L1 cells
Experiment: Adipocyte differentiation (fat accumulation) measurement by Oil Red-O staining
Format: cell-based, mouse
Details: for adipocyte differentiation inhibitory activity depending on the treatment concentration: 3T3-L1 cells, Oil Red O staining; for inhibition at 20 µg/mL: Mus musculus, 20 μg/ml, the highest concentration in the experiment, 3T3-L1 differentiation, Oil Red O, read-out: effect of inhibiting adipogenesis
Experimental: 3T3-L1 cells, a mouse-derived preadipocyte, were purchased from the Korean Cell Line Bank and used. 3T3-L1 cells were cultured in a 37° C.-wet CO2 incubator (5% CO2/95% air) using a cell culture medium (complete DMEM culture medium) in which 10% bovine calf serum (BCF), 100 units/mL penicillin, and 100 μg/mL streptomycin were added to a DMEM medium (Welgene). When the cells were 80% full of the culture dish, the cell monolayer was washed with phosphate buffer saline (PBS, pH 7.4), and then the cells were detached by adding trypsin-2.65 mM EDTA and subcultured, and the medium was exchanged every 2 days.
3T3-L1 cells were seeded onto 24-well plate at a concentration of 1×10^5 cells/well. After the cells reached the confluence state, the cell culture medium was sequentially exchanged with three kinds of differentiation-inducing cultures (DM), and the cells were cultured to induce differentiation into adipocytes. That is, the cell culture medium was exchanged with a differentiation-inducing culture medium in which DMI (1 μM dexamethasone, 0.5 mM 3-isobutyl-1-methylxanthine (IBMX), […]) was added to a DMEM medium containing 10% FBS to stimulate differentiation for 2 days. After 2 days, the cells were exchanged for a new differentiation-inducing culture medium in which 5 μg/mL insulin was added to DMEM medium containing 10% FBS to stimulate differentiation for another 2 days. After stimulating differentiation for a total of 4 days, cells were maintained in DMEM medium containing 10% FBS for 2 days to induce differentiation into adipocytes.
In order to investigate the effect of the test substance on adipocyte differentiation, the test substance was added to the differentiation-inducing culture medium and treated on the cells.
After treatment with the test substance while inducing differentiation of 3T3-L1 cells, the cells were rinsed with DPBS (Welgene), and then the cells were fixed at room temperature for 1 hour by adding 4% paraformaldehyde (PFA, Biosesang). After the cells were fixed, the cells were treated with oil red O (Sigma-Aldrich) solution and stained at room temperature for 1 to 2 hours. After observing the staining degree of adipocytes visually, the cells were rinsed with distilled water and observed for adipocytes through a microscope.

`O=C1c2c(O)cc(O)cc2O[C@H](c2ccc(O)c(O)c2)[C@H]1O` [Taxifolin-aglycone, taxifolin] was tested, and the “adipocyte differentiation inhibitory activity depending on the treatment concentration” value was “increases in a concentration-dependent manner” and the inhibition at 20 µg/mL was ≥ 40%.
In the case of `O=C1c2c(O)cc(O)cc2O[C@H](c2ccc(O)c(O)c2)[C@H]1OC1OC[C@@H](O)[C@@H](O)[C@@H]1O` (stereo partly drawn) [Taxifolin-3-O-arabinopyranoside, taxifolin-3-O-α-L-arabinopyranoside], the “adipocyte differentiation inhibitory activity depending on the treatment concentration” value is reported as “increases in a concentration-dependent manner” and the inhibition at 20 µg/mL is reported as ≥ 40%.
